Assay results: article PMC6270263, “Factors Influencing the Antifolate Activity of Synthetic Tea-Derived Catechins” (Molecules, 2013)
Like-named read-outs stand apart in the source and are kept apart here.

Experiments:
[1] = tested on: SK-MEL-28 melanoma cell line; assay: MTT cell proliferation assay in melanoma cells; assay type: cell-based, human; conditions: SK-MEL-28, after 6 days of treatment, read-out: Half-maximal inhibitory concentration (IC50)
Text: Antifolate compounds are designed to inhibit DHFR and act specifically during DNA and RNA synthesis, making them more toxic to rapidly dividing cells. Recent evidences indicate that tea-catechins and derived compounds could inhibit DHFR and block the folate cycle in cancer cells. Although inhibition of DHFR by these compounds could be a plausible explanation for their antifolate activity, the possibility of these compounds targeting (folate)-enzymes other than DHFR could not be excluded. To determine whether these newly synthetized compounds disrupt the folate cycle in cell culture, we studied their antiproliferative activity in the melanoma cell line SK-MEL-28 (Table 3). Concentration- and time-dependent effects were analyzed using the colorimetric 4,5-(3)-dimethylthiazol-2-yl)-2,5-diphenyltetrazolium bromide (MTT) method.
The human melanoma cell line SK-MEL-28 was obtained from American Type Culture Collection (ATCC, Manassas, VA, USA) and was maintained in Eagles’s Minimum Essential Medium (EMEM) supplemented with 10% (v/v) FBS and antibiotics at 37 °C in a humidified atmosphere containing 7.5% CO2. Cell viability was evaluated using the MTT cell proliferation assay. Cells were evaluated for apoptosis using a cell death detection ELISA (Cell Death Detection ELISAPLUS, Roche Diagnostics, Barcelona, Spain). The principle of this test is the detection of mono- and oligonucleosomes in the cytoplasmic fractions of cell lysates using biotinylated anti-histone and peroxidase-coupled anti-DNA antibodies. The amount of nucleosomes is photometrically quantified at 405 nm by the peroxidase activity retained in the immunocomplexes. Apoptosis was defined as the specific enrichment of mono- and oligonucleosomes in the cytoplasm and was calculated by dividing the absorbance of treated samples with the absorbance of untreated samples after correcting for the number of cells. The induction of apoptosis in each melanoma cell line after a 7 h treatment with 2 μM staurosporin (100% apoptotic cells) was used to calculate the number of apoptotic cells. For these assays, cells were plated in a 96-well plate at a density of 1000–2000 cells/well. Compounds were added once at the beginning of the experiments.

[2] = target: T1, free recombinant human DHFR (rHDHFR) (Homo sapiens, UniProt P00374); assay: Binding of polyphenols to free rHDHFR by fluorescence quenching titration
T1 construct: made in house; host or cells: Bombyx mori chrysalides
T1 sequence (P00374 1-187): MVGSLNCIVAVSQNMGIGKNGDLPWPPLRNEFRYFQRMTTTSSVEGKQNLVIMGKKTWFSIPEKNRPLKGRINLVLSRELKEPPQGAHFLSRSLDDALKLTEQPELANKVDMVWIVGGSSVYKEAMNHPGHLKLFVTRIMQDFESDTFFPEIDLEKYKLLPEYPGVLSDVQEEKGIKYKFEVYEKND
Method: Natural and synthetic derivatives of tea catechins have shown to be good inhibitors of human DHFR [7, 11, 16, 18]. To determine the ability of natural and synthetic polyphenols to bind DHFR, we performed a structure-activity study by analyzing the binding of these polyphenols to DHFR using fluorescence quenching. Effective binding to free recombinant human DHFR (rHDHFR) was determined by measuring the decrease in enzyme fluorescence that occurs upon the formation of the enzyme-inhibitor complex. […] The dissociation constants of the synthetic compounds were on the same order as those of the natural analogues, indicating the high DHFR binding capacities of these new derivatives.
The dissociation constants for the binding of polyphenols to free recombinant human DHFR (rHDHFR) were determined by fluorescence titration in an automatic-scanning FluoroMax-3 (Jobin Ybon, Horiba, Edison, NJ, USA) spectrofluorometer with 1.0 cm light path cells and a 150 W mercury-xenon light source. The formation of a binary complex between the enzyme (2.5 × 10^−7 M) and the ligand (from 0 to 40 µM) was followed by measuring the quenching of the tryptophan fluorescence of the enzyme upon the addition of microliter volumes of a concentrated stock solution of ligand. Experiments were performed at pH 7.5 in a buffer containing 2-(N-morpholino)ethanesulfonic acid (Mes, 0.025 M), sodium acetate (0.025 M), tris(hydroxymethyl)aminomethane (Tris 0.05 M), and NaCl (0.1 M). The temperature was controlled at 25 °C using a Haake D1G circulating bath with a heater and cooler. Fluorescence emission spectra were recorded when the human DHFR fluorescence was excited at 290 nm, and titrations were performed as described elsewhere.

[3] = target: T2, human serum albumin (HSA) (Homo sapiens, UniProt P02768); assay: HSA binding by fluorescence quenching
T2 construct: purchased Sigma-Aldrich
T2 sequence (P02768 25-609): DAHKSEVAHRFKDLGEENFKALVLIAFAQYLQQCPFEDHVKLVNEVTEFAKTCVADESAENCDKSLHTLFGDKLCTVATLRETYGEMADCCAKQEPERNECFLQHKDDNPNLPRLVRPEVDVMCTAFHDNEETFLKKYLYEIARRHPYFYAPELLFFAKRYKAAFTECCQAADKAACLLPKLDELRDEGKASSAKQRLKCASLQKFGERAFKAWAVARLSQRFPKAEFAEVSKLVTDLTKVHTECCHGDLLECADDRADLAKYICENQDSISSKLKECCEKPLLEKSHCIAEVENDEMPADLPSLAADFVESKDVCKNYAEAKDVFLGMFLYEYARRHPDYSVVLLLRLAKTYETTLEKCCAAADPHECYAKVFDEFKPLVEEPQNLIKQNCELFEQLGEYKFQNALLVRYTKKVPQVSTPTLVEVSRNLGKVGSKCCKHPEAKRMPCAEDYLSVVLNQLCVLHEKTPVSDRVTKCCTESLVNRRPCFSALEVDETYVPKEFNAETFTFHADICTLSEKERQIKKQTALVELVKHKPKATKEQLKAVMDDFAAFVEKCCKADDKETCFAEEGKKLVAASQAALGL
Method: Fluorescence measurements were made on an automatic scanning Perkin-Elmer LS50B spectrofluorometer with 1.0 cm light path cells equipped with a 150 W xenon (XBO) light source. […] A plot of log (F0-F)/F against log [Q] was used to determine the values of KA and n from the intercept and the slope, respectively. Binding of TMECG, EGCG, and EC to HSA was determined as specified for the BSA binding studies.

[4] = target: T3, bovine serum albumin (BSA) (Bos taurus, UniProt P02769); assay: Competitive site-marker (warfarin, ibuprofen) binding to BSA; conditions: for Kd: Binding constant (KA), BSA, 25 °C
T3 construct: purchased Sigma-Aldrich
T3 sequence (P02769 25-607): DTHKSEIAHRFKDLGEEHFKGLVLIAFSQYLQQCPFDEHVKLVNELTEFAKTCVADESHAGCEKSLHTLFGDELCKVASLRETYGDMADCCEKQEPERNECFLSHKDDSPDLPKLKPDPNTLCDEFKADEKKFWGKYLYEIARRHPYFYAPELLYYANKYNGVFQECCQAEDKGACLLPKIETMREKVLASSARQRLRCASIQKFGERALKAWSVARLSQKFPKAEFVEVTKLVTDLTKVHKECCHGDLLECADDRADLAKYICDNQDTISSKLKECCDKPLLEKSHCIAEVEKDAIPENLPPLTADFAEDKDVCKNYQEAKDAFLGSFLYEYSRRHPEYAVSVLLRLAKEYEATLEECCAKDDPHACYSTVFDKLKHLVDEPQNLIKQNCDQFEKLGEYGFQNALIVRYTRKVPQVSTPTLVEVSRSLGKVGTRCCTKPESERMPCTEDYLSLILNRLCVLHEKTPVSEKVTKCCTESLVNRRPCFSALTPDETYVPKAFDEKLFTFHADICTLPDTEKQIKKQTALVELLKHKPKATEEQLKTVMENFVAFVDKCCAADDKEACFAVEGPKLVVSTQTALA
Method: Next, the site selective binding of both EGCG and TMCG to BSA was analyzed. The capability of serum albumins to bind to aromatic and heterocyclic compounds is largely dependent on the existence of two major binding regions, namely site-I and site-II [25]. Warfarin and ibuprofen are fluorescence probes whose primary binding sites to BSA are site-I and site-II, respectively.
To identify the binding sites of EGCG and TMCG in BSA, the displacements of warfarin and ibuprofen (known to bind at site I and site II, respectively) were followed fluorometrically. Equimolar solutions of BSA and warfarin (5 × 10^−6 M each) were mixed for 1 h and titrated with EGCG and TMCG in separate experiments. Similar solutions containing equimolar ibuprofen and BSA were prepared and separately titrated with EGCG and TMCG to identify the binding sites of EGCG and TMCG with BSA. Titration was followed fluorometrically using an excitation wavelength of 280 nm.

[5] = target: T3, bovine serum albumin (BSA); assay: BSA binding by fluorescence quenching
Text: Upon progressive additions of various concentrations of EGCG and TMCG to BSA, the emission intensity decreases, as shown in Figure 4(a). The quenching of the fluorescence intensity of BSA implies that the catechins bind at close proximity to the tryptophan and tyrosine residues and that the molecular arrangement of BSA is affected by the interactions. […] The binding constants (KA) for the BSA-EGCG and BSA-TMCG complexes are 1.54 × 10^7 M^−1 and 1.9 × 10^5 M^−1, respectively (Table 4), and their plots are shown in Figure 4(b). […] In light of these findings, it can be reasoned that the binding affinity to BSA is higher for the galloylated catechin than for the methylated one, which emphasises that the three phenolic groups can enhance hydrogen bonding between BSA and EGCG [25].
Fluorescence measurements were made on an automatic scanning Perkin-Elmer LS50B spectrofluorometer with 1.0 cm light path cells equipped with a 150 W xenon (XBO) light source. In all experiments, the fluorescence of BSA (5 × 10^−6 M) in 50 mM phosphate buffer of pH 7.5 was followed by excitation at 280 nm. The binding affinities of EGCG and TMCG with BSA in terms of binding constants were determined using the following equation [25]: log (F0−F)/F = log KA + n log [Q](1) where KA is the binding constant, n is the number of binding sites, F0 is the fluorescence intensity of free BSA and F is the consequent fluorescence upon the addition of catechins (Q). A plot of log (F0-F)/F against log [Q] was used to determine the values of KA and n from the intercept and the slope, respectively.

[6] = UV-visible absorption spectra at different pH (ionization state); assay type: physicochemical; conditions: for Effect of pH on absorption spectra: UV-visible spectra, pH range 5.0–9.0 for TMCG and TMECG
Method: It has been shown that the protonation state of methotrexate, trimethoprim, and pyrimethamine modulates the binding of these antifolates to DHFRs from several sources. […] The absorbance maximum at 278 nm undergoes a bathochromic displacement to 328 nm, which is greatest at alkaline pH (pH > 9.0).
To determine if the spectral changes in the SYCG and SYECG solutions with pH were due to an irreversible oxidation reaction or to a reversible protonation step, a pH titration experiment was carried out. An alkaline solution of SYCG and SYECG (pH 8.5) was acidified to pH 2.5 by the addition of dilute HCl. A change in the spectra was observed, indicating a reversible protonation reaction. The spectral changes with pH observed in SYCG and SYECG can be attributed to the hydroxyl group para on the ester-bonded gallate moiety. At acidic pH, these derivatives are mainly present as protonated species, whereas at basic pH or values near neutrality, these derivatives evolve toward the deprotonated species, which are stabilized by resonance (Scheme 3). […] As described, an important factor that decreases catechin bioavailability might be their inability to easily cross cellular membranes by passive diffusion. The presence of several hydroxyl groups in these molecules gives them a high hydrophilic character, which increases the difficulty of passing across lipid membranes.
Ultraviolet-visible absorption spectra of catechins at different pHs were recorded on a UV-Vis Perkin-Elmer Lambda-2 spectrophotometer with a spectral bandwidth of 1 nm at a scan speed of 60 nm s^−1. The experiments were performed in the same buffer as described for DHFR binding studies, and the ionic strength remained constant at an optimum value of 0.15 over the pH range that was used. The pH of the reaction was measured before and after the experiment.

[7] = Table 2, restates Table 1, read-out: KD, order of binding strengths to rHDHFR depending on D-ring substitution
[8] = pH 7.5, 25 °C, fluorescence titration, read-out: Dissociation constant KD of free rHDHFR
[9] = determined as for BSA binding studies, read-out: Binding affinity to HSA (KA) (converted)

Row | Structure (SMILES) | IC50 ([1]; Homo sapiens, SK-MEL-28, 144 h) [µM] | melting point [°C] | Kd [2, 7] [µM] | Kd [2, 8] [µM] | Effect of pH on absorption spectra [6] | also measured
1 | O=C(O[C@H]1Cc2c(O)cc(O)cc2O[C@@H]1c1ccc(O)c(O)c1)c1cc(O)c(O)c(O)c1 [CG, catechin-3-gallate, reference compound] | 82.2 ± 8 |  | 0.56 | 0.56 ± 0.07 |  | 
2 | Oc1cc(O)c2c(c1)O[C@H](c1ccc(O)c(O)c1)[C@H](O)C2 [EC, epicatechin] |  |  |  |  |  | Kd [3, 9]: 312 µM
3 | O=C(O[C@@H]1Cc2c(O)cc(O)cc2O[C@@H]1c1cc(O)c(O)c(O)c1)c1cc(O)c(O)c(O)c1 [EGCG, epigallocatechin-3-gallate, reference compound] |  |  |  |  |  | Kd [3]: 3.85 µM; Kd ([4]; site marker: Blank): 0.0649 µM; Kd ([4]; site marker: Ibuprofen): 0.082 µM; Kd ([4]; site marker: Warfarin): 7.69 µM; Site selective binding to BSA ([4]; competition with warfarin (site-I) and ibuprofen (site-II)): higher specificity for site-I; Kd [5]: 0.0649 µM; Number of binding sites n ([5]; catechin-BSA complex, double logarithmic plot): approximately 1
4 | COc1cc(C(=O)O[C@H]2Cc3c(O)cc(O)cc3O[C@@H]2c2ccc(O)c(O)c2)cc(OC)c1OC(C)=O [MASYCG, 3-O-(4-acetoxy-3,5-dimethoxybenzoyl)-catechin] | 60.9 ± 6 | 118 to 122 |  |  |  | 

Continued, in another order:

Row | IC50 ([1]; Homo sapiens, SK-MEL-28, 144 h) [µM] | melting point [°C] | Kd [2, 7] [µM] | Kd [2, 8] [µM] | Effect of pH on absorption spectra [6] | Structure (SMILES) | also measured
5 | 37.4 ± 4 | 88 to 93 |  |  |  | COc1cc(C(=O)O[C@H]2Cc3c(OC(C)=O)cc(OC(C)=O)cc3O[C@@H]2c2ccc(OC(C)=O)c(OC(C)=O)c2)cc(OC)c1OC(C)=O [ASYCG, 5,7,3’,4’,4’’-penta-O-acetyl-3-O-(3,5-dimethoxybenzoyl)-catechin] | 
6 | > 100 |  | 0.81 | 0.81 ± 0.09 |  | O=C(O[C@@H]1Cc2c(O)cc(O)cc2O[C@@H]1c1ccc(O)c(O)c1)c1cc(O)c(O)c(O)c1 [ECG, epicatechin-3-gallate, reference compound] | 
7 | 126 ± 10 | 110 to 114 | 0.72 | 0.72 ± 0.1 | strongly affected by the pH | COc1cc(C(=O)OC2Cc3c(O)cc(O)cc3OC2c2ccc(O)c(O)c2)cc(OC)c1O (centres unmarked) [SYCG, 3-O-(4-hydroxy-3,5-dimethoxybenzoyl)-catechin] | Ionization state at physiologic pH [6]: partially in their ionic form
8 |  | 120 to 123 | 0.77 | 0.77 ± 0.07 | strongly affected by the pH | COc1cc(C(=O)OC2Cc3c(O)cc(O)cc3OC2c2ccc(O)c(O)c2)cc(OC)c1O (centres unmarked) [SYECG, 3-O-(4-hydroxy-3,5-dimethoxybenzoyl)-epicatechin] | IC50 [1]: 199 ± 12 µM; Ionization state at physiologic pH [6]: partially in their ionic form
9 | 2.5 ± 0.6 |  | 2.1 | 2.1 ± 0.2 | no significant changes | COc1cc(C(=O)O[C@@H]2Cc3c(O)cc(O)cc3O[C@@H]2c2ccc(O)c(O)c2)cc(OC)c1OC [TMECG] | Kd [3, 9]: 23.8 µM
